From patent publication US5340727A, “GPIbα fragments and recombinant DNA expression vectors” (The Scripps Research Institute, priority 1990, dated 1994)
Where no end group is shown, it is not given here.

Tests used:
vWF-GPIb interaction [1] = target: T1, vWF-GPIb interaction (Homo sapiens, UniProt P04275+P07359); assay: Ristocetin-induced binding of 125I-labeled vWF to fresh or formalin-fixed platelets; settings: peptides tested individually; read-out: IC50, inhibition of binding of vWF to the GPIb of platelets by synthetic peptides
T1 construct: endogenous in cells; host or cells: fresh or formalin-fixed platelets
Experimental: The assay system is based on the use of ^125 I-labeled vWF and fresh or formalin-fixed platelets; ristocetin was used to induce the binding of vWF to GPIb. After incubation for 30 minutes at 37° C., without stirring, separation of bound platelet from free vWF ligand was achieved by centrifugation through 20% sucrose in Tyrode buffer, followed by measurement of the bound radioactivity as described in Ruggeri et al., J. Clin. Invest., 72, 1-12 (1983). Nonspecific binding was evaluated for selected points by measuring the binding in the presence of a 40-fold excess of unlabeled vWF. Binding isotherms were evaluated by Scatchard-type analysis to determine binding parameters (including the estimate of nonspecific binding) using the computer-assisted program "Ligand" as described in Munson, Methods Enzymol., 92, 542-576 (1983).

vWF-GPIb interaction [2] = target: T1, vWF-GPIb interaction; assay: Inhibition of ristocetin-induced binding of vWF to formalin-fixed platelets (Example 1); settings: 125I-vWF 5 μg/ml, ristocetin 1.0 mg/ml
Experimental: To test the inhibitory activity of the peptides of the present invention, formalin-fixed platelets were used at a final concentration of 1×10^11 /l. Assayed peptides were then added at various concentrations. One third final volume of vWF-deficient plasma was then added followed by ^125 I-vWF at a final concentration of 5 μg/ml. Ristocetin was then added at a concentration of 1.0 mg/ml. After incubation for o30 minutes at room temperature, bound and free vWF ligand were separated by centrifuging 50 μl of the mixture through 300 μl of 20% sucrose at 12,000 g for 4 minutes. The platelet pellet was then separated from the rest of the mixture to determine platelet-bound radioactivity. Nonspecific binding was defined as the residual binding of ^125 I-vWF in the presence of a 50-fold excess of unlabeled vWF but in the absence of any peptides.
Percent inhibition with a given peptide was calculated by dividing the specific cpm […].

vWF-GPIb interaction [3] = target: T1, vWF-GPIb interaction; assay: Inhibition of asialo-vWF binding to fresh platelets (Example 2); settings: 125I-asialo-vWF 5 μg/ml
Experimental: Fresh platelets were prepared by drawing blood into a solution of 11 mM trisodium citrate and 2 mM EDTA. Platelet-rich plasma was then prepared by differential centrifugation. The platelet count was then adjusted to 1×10^11 /l. Peptides were then added to various concentrations and ^125 I-asialo-vWF was then added at a final concentration of 5 μg/ml. After incubation for 30 minutes at room temperature, bound and free vWF ligand were separated by centrifuging 50 μl of the mixture through 300 μl of 20% sucrose at 12,000 g for 4 minutes. The platelet pellet was then separated from the rest of the mixture to determine platelet-bound radioactivity. Non-specific binding was defined as the residual binding of ^125 I- asialo-vWF in the presence of a 50-fold excess of unlabeled vWF but in the absence of any peptides.
Percent inhibition with a given peptide was calculated by dividing the specific cpm obtained when various concentrations of peptide were added by the specific cpm in the absence of peptide.

GPIb-IX (Homo sapiens) = target: T2, GPIb-IX (Homo sapiens); assay: Ristocetin-dependent 125I-vWF binding to formaldehyde-fixed washed platelets (Examples 5-7); settings: 125I-vWF 2 μg/ml; read-out: concentration that inhibits 50% of ristocetin-induced binding of vWF
T2 construct: which utilizes washed platelets fixed with formaldehyde; endogenous in cells; host or cells: washed platelets fixed with formaldehyde
Experimental: (§1) Percent inhibition of binding of vWF to platelets was measured using I^125 labelled vWF prepared according to the methods of Ruggeri et al. See also DeMarco et al., J. Clin. Invest., 68, 321-328 (1981). Binding of vWF to platelets induced by ristocetin and/or botrocetin (and inhibition thereof) was measured according to the method of MacFarlane et al., Thromb. Diath. Haemorrh., 34, 306-308 (1975) which utilizes washed platelets fixed with formaldehyde. […] Each peptide, used at a final concentration of 500 μmol/l with a ^125 I-vWF concentration of 2 μg/ml, is identified by the same numeral used in the top part of the figure.
(§2) Further experiments were performed with a constant ^125 I-vWF concentration of 2 μg/ml and varying peptide concentration, as indicated on the FIG. 2 abscissa. […] One hundred percent binding was that measured in the presence of Hepes buffer instead of peptide.
(§3) Binding inhibition experiments were conducted analogous to those in Example 6 using an I^125 -vWF concentration of 2 μg/ml.

GPIb-IX = GPIb-IX (Homo sapiens, UniProt P04275); assay: biochemical
Chain of GPIb-IX (P04275 764-2813 limits assumed): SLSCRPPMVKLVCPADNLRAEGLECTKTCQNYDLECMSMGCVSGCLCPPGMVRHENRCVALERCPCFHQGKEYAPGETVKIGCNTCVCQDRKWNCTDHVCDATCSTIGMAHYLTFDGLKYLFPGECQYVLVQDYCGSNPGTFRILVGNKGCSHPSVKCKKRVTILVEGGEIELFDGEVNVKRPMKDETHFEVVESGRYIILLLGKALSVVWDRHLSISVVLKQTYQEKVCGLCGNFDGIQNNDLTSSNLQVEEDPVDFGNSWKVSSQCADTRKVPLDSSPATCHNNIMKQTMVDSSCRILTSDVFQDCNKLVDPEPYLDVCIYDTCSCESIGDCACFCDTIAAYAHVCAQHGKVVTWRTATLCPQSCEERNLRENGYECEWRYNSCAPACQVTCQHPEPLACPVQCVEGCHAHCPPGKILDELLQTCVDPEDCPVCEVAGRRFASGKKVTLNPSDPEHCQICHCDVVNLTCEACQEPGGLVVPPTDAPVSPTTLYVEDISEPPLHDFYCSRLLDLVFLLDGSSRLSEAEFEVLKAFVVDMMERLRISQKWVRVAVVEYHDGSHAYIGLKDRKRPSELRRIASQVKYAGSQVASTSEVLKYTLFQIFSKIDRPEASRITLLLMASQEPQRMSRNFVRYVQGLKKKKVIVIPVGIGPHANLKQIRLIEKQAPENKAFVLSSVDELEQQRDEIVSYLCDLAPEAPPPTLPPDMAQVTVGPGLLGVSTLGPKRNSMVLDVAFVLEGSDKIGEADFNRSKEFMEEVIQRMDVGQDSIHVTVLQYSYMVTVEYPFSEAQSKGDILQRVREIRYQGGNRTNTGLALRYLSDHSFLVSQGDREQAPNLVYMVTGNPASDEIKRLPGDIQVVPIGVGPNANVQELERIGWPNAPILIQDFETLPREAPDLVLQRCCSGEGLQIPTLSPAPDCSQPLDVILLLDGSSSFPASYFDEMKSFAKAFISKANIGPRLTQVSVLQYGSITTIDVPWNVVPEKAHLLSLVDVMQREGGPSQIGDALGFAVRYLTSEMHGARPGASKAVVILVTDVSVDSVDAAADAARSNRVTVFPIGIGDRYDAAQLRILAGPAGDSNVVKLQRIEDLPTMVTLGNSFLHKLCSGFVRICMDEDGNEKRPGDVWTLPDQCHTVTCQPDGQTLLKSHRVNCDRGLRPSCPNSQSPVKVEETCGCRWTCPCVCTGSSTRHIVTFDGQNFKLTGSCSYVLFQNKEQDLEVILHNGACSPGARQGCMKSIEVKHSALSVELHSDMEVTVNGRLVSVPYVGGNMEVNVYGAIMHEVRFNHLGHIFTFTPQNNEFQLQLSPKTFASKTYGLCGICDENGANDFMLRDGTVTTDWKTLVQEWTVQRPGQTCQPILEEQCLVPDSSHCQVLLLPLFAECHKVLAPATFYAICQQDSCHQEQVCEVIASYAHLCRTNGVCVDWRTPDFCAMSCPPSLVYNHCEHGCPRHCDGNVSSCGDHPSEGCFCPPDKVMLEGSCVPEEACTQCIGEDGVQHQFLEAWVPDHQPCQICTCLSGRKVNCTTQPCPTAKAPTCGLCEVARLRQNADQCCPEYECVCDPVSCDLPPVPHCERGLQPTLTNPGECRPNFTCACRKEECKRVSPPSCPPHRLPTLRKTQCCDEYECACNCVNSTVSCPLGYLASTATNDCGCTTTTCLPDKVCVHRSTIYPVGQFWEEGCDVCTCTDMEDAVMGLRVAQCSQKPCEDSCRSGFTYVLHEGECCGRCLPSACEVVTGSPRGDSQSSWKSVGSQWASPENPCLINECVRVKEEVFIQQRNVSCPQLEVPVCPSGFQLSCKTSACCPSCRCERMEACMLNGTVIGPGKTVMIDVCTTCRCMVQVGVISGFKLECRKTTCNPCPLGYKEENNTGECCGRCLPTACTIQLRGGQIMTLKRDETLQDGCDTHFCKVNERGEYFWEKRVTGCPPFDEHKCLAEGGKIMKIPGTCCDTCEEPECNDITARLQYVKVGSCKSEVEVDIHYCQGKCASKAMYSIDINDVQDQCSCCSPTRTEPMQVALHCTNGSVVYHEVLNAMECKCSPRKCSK
Experimental: as §1, §2, §3

T1 sequence (P07359 17-652): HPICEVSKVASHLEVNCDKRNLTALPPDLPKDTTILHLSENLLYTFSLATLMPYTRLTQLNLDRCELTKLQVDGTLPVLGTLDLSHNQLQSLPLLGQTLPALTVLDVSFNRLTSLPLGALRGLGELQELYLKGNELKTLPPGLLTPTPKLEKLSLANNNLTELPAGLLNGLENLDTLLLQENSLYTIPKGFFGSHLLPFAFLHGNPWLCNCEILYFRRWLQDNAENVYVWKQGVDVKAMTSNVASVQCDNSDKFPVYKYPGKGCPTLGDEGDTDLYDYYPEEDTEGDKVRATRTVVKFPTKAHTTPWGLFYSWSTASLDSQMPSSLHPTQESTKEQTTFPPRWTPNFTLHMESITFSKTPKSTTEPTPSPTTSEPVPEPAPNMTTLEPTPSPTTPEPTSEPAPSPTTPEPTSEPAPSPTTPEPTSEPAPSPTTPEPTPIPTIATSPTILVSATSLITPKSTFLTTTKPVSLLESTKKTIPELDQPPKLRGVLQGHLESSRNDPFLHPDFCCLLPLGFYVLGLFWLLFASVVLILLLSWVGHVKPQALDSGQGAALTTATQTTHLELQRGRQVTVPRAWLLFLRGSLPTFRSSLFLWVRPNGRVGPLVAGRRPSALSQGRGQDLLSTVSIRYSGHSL
T1 sequence (P04275 764-2813 limits assumed): as the sequence (P04275 764-2813 limits assumed) above
T2 sequence (P04275 764-2813 limits assumed): as above

Substance	IC50 (vWF-GPIb interaction [1]) [µM]	other results
PPDLPKDTTILHLSE	≤ 500	–
KQGVDVKAMTSNVAS	≤ 500	–
EEDTEGDKVRATRTV	≤ 500	–
EEDTE [EEDTE]	> 500	–
KRKRKRKRKR [(KR)5]	–	IC50 (vWF-GPIb interaction [2]): 13 µM; IC50 (vWF-GPIb interaction [3]): 1.7 µM
PPDLPKDTT	> 500	–
NLTALPPDLPKDTTI	≤ 500	–
KRKRKRKRKRKRKR [(KR)7]	–	IC50 (vWF-GPIb interaction [2]): 9 µM
PGLLTPTPKLEKLSL	≤ 500	–
DKRNLTALPPDLPKDTT	≤ 500	–
GDTDLYDYYPEEDTE [peptide 25]	≤ 500	IC50 (GPIb-IX (Homo sapiens)): 420 µM; IC50 (GPIb-IX): 530 µM
